According to patent US20230097992A1, “BIVALENT EGF FUSION TOXINS” (The Regents of the University of Colorado, a body corporate, priority 2020, published 2023):

Experiments:
[1] = test system: human EGFR-positive HNSCC cell line UMSCC1; test: CellTiter-Glo Luminescent Cell Viability Assay, UMSCC1; type: cell-based; conditions: UMSCC1, read-out: IC50 to HNSCC cell lines (Erlotinib)
Description: (§1) FIG. 9 presents the data from in vitro efficacy analysis of the human EGF fusion toxins against human EGFR-positive HNSCC cell lines using CellTiter-Glo® Luminescent Cell Viability Assay (Promega) Y-axis: inhibition rate of the cell viability by determining the number of viable cells based on the quantification of the ATP present. X-axis: plated fusion toxin concentration. Cycloheximide (1.25 mg/mL) was used as a positive control. The negative control contained cells without fusion toxin. Data were from three individual experiments for each HNSCC cell line. Error bars indicate SD.
(§2) Y-axis: inhibition rate of the cell viability by determining the number of viable cells based on the quantification of the ATP present. […] Cycloheximide (1.25 mg/mL) was used as a positive control. […]
(§3) In vitro efficacy analysis of the human EGF fusion toxins (mEGF-IT and bEGF-IT) to the human HNSCC tumor cell lines was performed using CellTiter-Glo® Luminescent Cell Viability Assay (Promega Corporation, Madison, Wis.) as described previously (Zheng et al. (2017), Mol. Oncol. 11, 584-594, which is hereby incorporated by reference in its entirety). This cell viability assay measures the luminescence produced because of ATP production from metabolically active cells. […] The luminescence signals were recorded using BioTek Synergy LX Multi-Mode Reader.
(§4) IC50 was determined using nonlinear regression (curve fit) of Prism. […]

[2] = test system: human EGFR-positive HNSCC cell line UMSCC22B; test: CellTiter-Glo Luminescent Cell Viability Assay, UMSCC22B; type: cell-based; conditions: read-out: IC50 to HNSCC cell lines (Erlotinib)
Description: as §1, §2, §3, §4

[3] = test system: human EGFR-positive HNSCC cell line UMSCC47; test: CellTiter-Glo Luminescent Cell Viability Assay, UMSCC47; type: cell-based; conditions: read-out: IC50 to HNSCC cell lines (Erlotinib)
Description: as §1, §2, §3, §4

[4] = test system: human EGFR-positive HNSCC cell line TU167; test: CellTiter-Glo Luminescent Cell Viability Assay, TU167; type: cell-based; conditions: read-out: IC50 to HNSCC cell lines (Erlotinib)
Description: as §1, §2, §3, §4

[5] = test system: human EGFR-positive HNSCC cell line Vu1365; test: CellTiter-Glo Luminescent Cell Viability Assay, Vu1365; type: cell-based; conditions: read-out: IC50 to HNSCC cell lines (Erlotinib)
Description: as §1, §2, §3, §4

[6] = test system: residual Cal27 tumor cells; test: CellTiter-Glo Luminescent Cell Viability Assay, residual Cal27 tumor cells; type: cell-based, human; conditions: residual Cal27 cells from flank xenografts at day 14 after bEGF-IT 50 μg/kg once daily for 10 days
Description: FIGS. 13A-C present in vitro binding affinity and efficacy analysis of the bEGF-IT to the residual Cal27 tumor cells. FIG. 13A: Flow cytometry binding affinity analysis of the bEGF-IT to the residual Cal27 tumor cells. The data were representative of three individual experiments. FIG. 13B: KD determination of the bEGF-IT to the residual Cal27 tumor cells using flow cytometry and nonlinear least squares fit. FIG. 13C: In vitro efficacy analysis of the bEGF-IT to the residual Cal27 tumor cells using CellTiter-Glo® Luminescent Cell Viability Assay. bEGF-IT group (green line); Anti-murine PD-1 immunotoxin group as negative control (blue line). Data were from three individual experiments. Error bars indicate SD.
The tumor was removed from the sacrificed flank-xenograft solid tumor-bearing mice and washed with PBS twice in sterile manner. Then the tumor sample was cut into small pieces (approximately 1 mm^3) on the lid of a petri dish and washed with PBS. The tissue pellet was resuspended in DMEM tissue culture medium and cultured in the T25 flask. After several days of culture, the tissue residues were removed and the residual tumor cells were cultured as parent Cal27 tumor cell line.
It was hypothesized that the residual tumor cells were still sensitive to the human EGF fusion toxin treatment. […]

NSG mice = test: In vivo off-target toxicity in NSG mice
Description: FIGS. 12A-C presents representative images of necropsy results for NSG mice treated with mono-EGF-IT or bi-EGF-IT without tumor cell injection. Mice were euthanized on day 13 after the first injection of the fusion toxins. The images show representative gross changes observed in the ear (FIG. 12A), liver (FIG. 12C) and gastrointestinal tract of a representative NSG mouse treated with mono-EGF-IT compared to a representative NSG mouse treated with bi-EGF-IT.
Mono-EGF-IT (mEGF-IT), bEGF-IT, or DT390 was intraperitoneally injected (IP) starting at day 4 at 50 μg/kg, once daily for 10 consecutive days. […] The injected animals were observed daily for signs and symptoms of illness and scored at least twice weekly based on the parameters as previously reported (Peraino et al. (2013), J. Immunol. Methods 398-399, 33-43, which is hereby incorporated by reference in its entirety; Wang et al., 2015). The animals were humanely euthanized when the score exceeded the limit or the animal lost more than 15% of its pre-injection body weight. In addition, to assess whether the fusion toxins are toxic to the animals, NSG mice injected with the fusion toxins only were also included as control.
The main side effects of targeting EGFR are caused by off-target effects, because EGFR is expressed in many healthy tissues, include skin, liver, and gastrointestinal tract (Widakowich et al., (2007), Oncologist, 12, 1443-1455). […] To further assess these toxic effects, another in vivo toxicity study in non-tumor-bearing mice was performed. NSG mice were treated with mono-EGF-IT or bi-EGF-IT, without tumor cell injection.

[7] = non-tumor-bearing NSG mice, 13 days after the first injection

| Compound | IC50 [1] [nM] | IC50 [2] [nM] | IC50 [3] [nM] | IC50 [4] [nM] | IC50 [5] [nM] | IC50 [6] [nM] | adverse effects observed in treated mice (NSG mice; mice of the efficacy studies) | general condition and skin (NSG mice; non-tumor-bearing NSG mice) | necropsy, gastrointestinal tract (NSG mice; [7]) | necropsy, liver (NSG mice; [7]) |
| --- | --- | --- | --- | --- | --- | --- | --- | --- | --- | --- |
| C#Cc1cccc(Nc2ncnc3cc(OCCOC)c(OCCOC)cc23)c1 [Erlotinib] | 2460 | 1740 | 4120 | 410 | 1540 |  |  |  |  |  |
| Bi-EGF IT: DT390 joined by G4S to two human EGF domains linked by (G4S)3, C-terminal 6×His tag; SEQ ID NO: 10 |  |  |  |  |  | 0.0562 | these adverse effects were not observed | but not bi-EGF-IT, were again generally unhealthy and lethargic with skin rashes | normal appearance of the gastrointestinal tract | no significant abnormal findings |
